Series [1] has as its system IL-6. In words: IL-6 ELISA in HIVIL (iKCs co-cultured with iHeps, LPS, 48 hr). It counts as cell-based, human. The settings on record: HIVIL; for IC50: Homo sapiens, LPS, 48 hr; for IL-6 response: result in words. From the text: (§1) Human iPSC cell line iPS (IMR90)-4 was purchased from WiCell Research Institute (Madison, WI), and maintained with a feeder-free method according to the instruction from […] Technologies (Vancouver, BC, Canada). The protocol of differentiation towards iKCs and iHeps as described previously with slight modification ([Tasnim et al., 2019]; [Cai et al., 2012]), respectively. […] More details are provided in Supplementary Methods. After differentiation, iKCs was harvested using 0.05 % trypsin-EDTA (Gibco, Waltham, Massachusetts, USA), while iHeps were dissociated with TrypLE^TM (Gibco). iHep suspension was further filtered through a 40 µm cell strainer to remove extracellular matrix clumps. Cell suspension was centrifuged at 1000 rpm for 5 min. For co-culture set up, tissue culture plates were coated with Rat tail collagen I (Gibco) diluted 100-fold in 0.02 N acetic acid, and incubated at 37 °C for 1 h and washed 3 times with PBS. According to the protocol optimized by [Tasnim et al. (2019)], iKCs was firstly seeded at a density of 14,000 per well on 96-well plate with Advanced DMEM (plus supplements) containing 5 % FBS. On the following day, iHeps were added at a density of 35,000 per well in Williams’ Medium E (plus supplements) (iHep: iKCs ratio = 2.5: 1). This reflects the physiological ratio of these cells in vivo under inflammatory conditions ([Tasnim et al., 2021]). Fresh media containing drugs was applied to co-cultures the next day. 50,000 cells were seeded to establish iHeps monoculture. THP-1 cells were kindly obtained from Dr. Eliza Fong and cultured as described by [Zeng et al. (2015)]. Details provided in Supplementary Methods.
(§2) Stock solutions of drugs were prepared in dimethyl sulfoxide (DMSO) and dissolved in medium prior to use. […] For these two drugs, the highest DMSO concentration was 1 %. Supernatant was collected at 48 hr for measurement of cytokines, and remaining cells were subjected to viability assay prior to lysis for RNA extraction.
(§3) Enzyme-linked immunosorbent assay (ELISA) for measurement of cytokines: Interleukin-6 (IL-6), interleukin-10 (IL-10) and tumor necrosis factor alpha (TNFα) levels in the media were measured using the corresponding human-based ELISA kits (Abcam, Cambridge, United Kingdom) according to manufacturer’s instructions. The cytokine production from dosed cells was normalized with the viability value from the same well. The normalized cytokine level upon drug treatments was further presented as percentage of DMSO+LPS. […] This normalization approach has been used in previous studies (Rose et al. 2016).
On the technique in general: In an ELISA, binding on a coated surface is turned into a signal by an enzyme label.

Series [2] has as its system TNFα. In words: TNFα ELISA in HIVIL (iKCs co-cultured with iHeps, LPS, 48 hr). It counts as cell-based, human.
Description: as §1, §2, §3

The subject of series [3] is HIVIL (iKCs co-cultured with iHeps). Nature of the series: AlamarBlue cell viability in HIVIL. The settings on record: for IC50: Homo sapiens, 48 h, read-out: IC50: viability. The protocol:
as §2
For orientation: The colour change of resazurin is a common sign of viable cells or microbes.

For series [4], the system named is IL-6. In words: IL-6 production of iKC mono-culture. It counts as cell-based, human. The conditions noted are these: result in words. The protocol:
(§4) Enzyme-linked immunosorbent assay (ELISA) for measurement of cytokines: Interleukin-6 (IL-6), interleukin-10 (IL-10) and tumor necrosis factor alpha (TNFα) levels in the media were measured using the corresponding human-based ELISA kits (Abcam, Cambridge, United Kingdom) according to manufacturer’s instructions. The cytokine production from dosed cells was normalized with the viability value from the same well. The normalized cytokine level upon drug treatments was further presented as percentage of DMSO+LPS. Normalization to viability per well ensures that any changes in cytokines are not due to changes in cell numbers upon drug treatment and normalization to DMSO+LPS allows better comparison between different batches of experiments. This normalization approach has been used in previous studies (Rose et al. 2016).

The conditions of series [5]: Cammett et al. 2009, Mendes et al. 2014, cited from earlier work.
For series [6], the system named is TNFα. The conditions noted are these: ref Shaw et al. 2010; Zou et al. 2009; Bekker et al. 2012; Gandhi et al. 2013; Heidari et al. 2019; cited from earlier work.
For series [7] the following is noted: FDA-labeling information; ref Chen et al. 2016; cited from earlier work.
The conditions of series [8]: binary classification by human hepatotoxicity; ref Thakkar et al. 2020; cited from earlier work.
In series [9] the test system is iKCs mono-culture. Nature of the series: Cell viability of iKCs mono-culture. Also noted: dose or concentration left out as unconfirmed.
Description: (§5) Cell viability assays: Cell viability was examined with AlamarBlue^TM cell viability assay (Thermo Fisher Scientific Inc.) according to manufacturer’s instructions. Briefly, cells were exposed to AlamarBlue^TM working solution, which was diluted 10-fold using PBS containing 2 mg/mL of glucose, for 1 hour. Color change in the solution was measured using fluorescence (Ex: 530nm, Em: 590nm) in Tecan Microplate Reader M1000 PRO. The viability of dosed cells was presented as percentage of the corresponding vehicle control.
The next series relates to cytokines. Also noted: method as in ref Ganey et al. 2004; Honarmand et al. 2012; Manna and Aggarwal 1999; Yao et al. 2004. The settings on record: ref Ganey et al. 2004; Honarmand et al. 2012; Manna and Aggarwal 1999; Yao et al. 2004; cited from earlier work.
For a further series, the system named is iHeps. In words: RNA-Seq of iHeps from mono-culture and HIVIL. Format: cell-based, human. The conditions noted are these: regardless of culture conditions, result in words. From the text: Subsequent analyses compared gene fold-changes of treated samples against their respective vehicle controls: "m" and "c" indicate mono- and co-culture, and "–" and "+" represent the absence or presence of LPS. […] However, this is only applicable for co-cultures where downstream effects can be traced back to cytokine changes, and not in monocultures where significant upstream cytokine changes are not observed.
RNA extraction was done using TRIzol and analyzed on a Tapestation 4200 to determine RNA Integrity Number (RIN). Only samples with RIN > 8 were sequenced. Illumina Stranded mRNA multiplexing was done with unique 96 dual indices, and all samples sequenced on the same lane of NovaSeq 6000 S4 flowcell. Data normalization was performed using DESeq2 v1.32.0 ([Love et al., 2014]) on the R programming language v4.1.0 ([R Core Team, 2021]; [R Team, 2021]). Gene enrichment analysis was done with fgsea v1.18 ([Korotkevich et al., 2021]) with gene sets downloaded from MSigDB and KEGG pathway visualization done via pathview v1.32 ([Kanehisa et al., 2021]; [Luo and Brouwer, 2013]). Other plots were produced using ggplot2 v3.3.5 and scatterplot3d v0.3-41 ([Ligges and Maechler, 2003]). The RNA-Seq dataset has been deposited in NCBI under accession number GSE189320.
RNA seq and analysis: After 48 hr of drug treatment, iHeps cultured in mono-culture and HIVIL were both subjected to TrypLE^TM dissociation, and subsequently sorted with magnetic separation with the CD163 Microbead kit (Miltenyi Biotec, Bergisch Gladbach, Germany) to obtain only iHeps. Flow-through was collected, pelleted down and snap-frozen in liquid nitrogen, before storage at -80°C. Lysates were sent to the Genome Research Informatics and Data Science platform (Agency for Science, Technology and Research, Singapore). RNA extraction was done using TRIzol and analyzed on a Tapestation 4200 to determine RNA Integrity Number (RIN). All sequenced samples included for further analysis had RIN > 8. Illumina Stranded mRNA multiplexing was done with unique 96 dual indices, and all samples sequenced on the same lane of NovaSeq 6000 S4 flowcell. Sequenced reads were trimmed for adaptor sequence using Trim Galore v0.6.4, then aligned to human genome build GRCh38 using STAR_2.6.1d. Aligned reads are summarized into count matrices using featureCounts v1.6.4 with the gene annotation file from GENCODE v37.
Data normalization was performed using DESeq2 v1.32.0 (Love et al. 2014) on the R programming language v4.1.0 (Core Team 2021; Team 2021). Gene enrichment analysis was done with fgsea v1.18 (Korotkevich et al. 2021) with gene sets downloaded from MSigDB and KEGG pathway visualization done via pathview v1.32 (Kanehisa et al. 2021; Luo and Brouwer 2013). Other plots were produced using ggplot2 v3.3.5 and scatterplot3d v0.3-41 (Ligges and Maechler 2003). The RNA-Seq dataset has been deposited in NCBI under accession number GSE189320.

Series [10] has as its system IL-6. Nature of the series: IL-6 ELISA in iPSC(F4)-derived HIVIL. Format: cell-based, human. The settings on record: result in words. The protocol:
as §4

In another series the test system is iPSC(F4)-derived HIVIL. Nature of the series: Cell viability in iPSC(F4)-derived HIVIL. Format: cell-based, human. The conditions noted are these: result in words.
The test system of series [11] is iKCs mono-culture.
Description: as §5
Series [12] concerns IL-6. Also noted: method as in Steuerwald et al. 2013; Mahdy et al. 2002; Kang et al. 2001. The settings on record: ref Steuerwald et al. 2013; Mahdy et al. 2002; Kang et al. 2001; cited from earlier work.
For the next series, the system named is NF-κB. Also noted: method as in Wahl et al. 1998. The settings on record: ref Wahl et al. 1998; cited from earlier work.
Series [13] relates to IL-6. On the set-up: method as in ref Hassan et al. 2016; Giustarini et al. 2019; Higuchi et al. 2012; Dik et al. 2018. The conditions noted are these: ref Hassan et al. 2016; Giustarini et al. 2019; Higuchi et al. 2012; Dik et al. 2018; cited from earlier work.
Where [14] appears, read: ref in each cell: Ademisoye et al. 2018, Xu et al. 2008, Agabeyoglu and Incecayir 2009, Rojanasthien et al. 2007, Reunanen et al. 1992, Li et al. 2002, Hong-mei et al. 2013, Bareggi et al. 1987, Jiang et al. 2008.

A word on the IC50: it is the concentration at which inhibition is half-maximal. By Cmax is commonly meant the highest concentration seen after dosing.

Each structure is given as a SMILES string. Read-outs that look alike come from different tables or passages of the source.

For the compound `CN(C)CCCN1c2ccccc2Sc2ccc(Cl)cc21` [CPZ, Chlorpromazine], the “group by drug-dependent IL-6 production” value in the series on IL-6 [1] is given as “dose-dependent inhibition”. Also, the values for the IC50 (in the series with IL-6 [1]; in series [3]) were 12.9 µM and 0.0344 mM, respectively. The “dose at which TNFα induction was observed” value in the series with TNFα [2] was 25 µM. Besides, the “IL-6 / cytokine production in iKC mono-culture” value with IL-6 [4] is recorded as “higher than that in the HIVIL model”. Moreover, the highest concentration (Cmax) in [5] (setting [14]) and in [5] (ref in each cell: Xu et al. 2008) was 0.8 µM each time. Besides, the “Reported in-vivo (murine) responses: TNFα” value with TNFα [6] is “TNFα↑ (Gandhi et al. 2013)”. Also, the DILIrank entry in [7] was “less”. Besides, the DILIst in series [8] is 1. In addition, in the series on iKCs mono-culture [9], the “decrease in viability in iKCs” value is 50%.

For `Cc1oncc1C(=O)Nc1ccc(C(F)(F)F)cc1` [LFM, leflunomide], in the series on IL-6 [1], the “group by drug-dependent IL-6 production” value is “dose-dependent induction” and the “increase in IL-6” value was 3.1 fold. The Cmax in series [5] (setting [14]) is 24.8 µM. Moreover, in the series on cytokines, the “Reported in-vivo (murine) responses: cytokines” value is “cytokines↓ via NF-kB (Manna and Aggarwal 1999; Yao et al. 2004)”. Besides, the DILIrank entry in [7] is “most”. The DILIst in [8] is recorded as 1.

On to `C[C@H]1COc2c(N3CCN(C)CC3)c(F)cc3c(=O)c(C(=O)O)cn1c23` [LVX, levofloxacin], for which, in the series with IL-6 [1], the “group by drug-dependent IL-6 production” value was “no dose-dependent changes” and the IL-6 response entry is recorded as “did not cause any change”. Moreover, the “change in cell viability” value in [3] (HIVIL, result in words) is “did not cause any change”. In [3] (comparison of mono-cultures and co-culture), the “viability profiles among iHeps, iKCs and HIVIL” value is recorded as “similar”. Moreover, the “IL-6 transcription in iHeps” value with iHeps is “remained unchanged”. In addition, the IL-6 production result in the series on IL-6 [10] is listed as “did not influence”. The cell viability entry in the series on iPSC(F4)-derived HIVIL is “did not influence”. Besides, the DILIrank result in series [7] was “most”. The DILIst in series [8] is listed as 1.

`CC1=C(CC(=O)O)c2cc(F)ccc2/C1=C\c1ccc([S+](C)[O-])cc1` (stereo not drawn) [SLD, sulindac]: in the series on IL-6 [1], the “group by drug-dependent IL-6 production” value was “dose-dependent inhibition”, the “reduction of IL-6” value was found to be 50% and the concentration for half-maximal inhibition (IC50) turned out to be 381 µM. For the same compound, the “dose at which TNFα induction was observed” value in the series with TNFα [2] is less than 200 µM. Besides, in [3], the IC50 was found to be 2.06 mM. In addition, in the series with IL-6 [4], the “IL-6 / cytokine production in iKC mono-culture” value was “abolished”. In addition, the “toxicity to iKCs mono-culture compared to iHeps mono-culture and HIVIL” value in the series on iKCs mono-culture [11] was “substantially higher toxicity”. Moreover, the “Reported human responses: IL-6” value in the series on IL-6 [12] is on record as “mechanistic IL-6↓ (Kang et al. 2001)”. For the same compound, the “Reported in-vivo (murine) responses: TNFα” value with TNFα [6] is on record as “TNFα↑ (Zou et al. 2009)”. In addition, in [7], the DILIrank entry is “most”. Also, the DILIst in series [8] is 1.

`O=C(O)c1cc(/N=N/c2ccc(S(=O)(=O)Nc3ccccn3)cc2)ccc1O` [SSZ, sulfasalazine]: in the series on IL-6 [1], the “group by drug-dependent IL-6 production” value is listed as “no dose-dependent changes” and the IL-6 response result is listed as “no change”. Also, in [5] (setting [14]), the Cmax is 17.6 µM. Moreover, in the series on NF-κB, the “Reported human responses: NF-κB” value is given as “NF-κB inhibitor (Wahl et al. 1998)”. Moreover, the “Reported in-vivo (murine) responses: IL-6” value in the series on IL-6 [13] was “IL-6↓ (Dik et al. 2018)”.

The record behind these values is article PMC13289212, “HIVIL: A human in vitro inflammatory liver model recapitulates immune-associated drug effects with high predictivity” (NAM journal, 2025).
